From patent publication US20260138990A1, “TRICYCLIC FUSED IMIDAZOLE COMPOUNDS AS CD38 MODULATORS AND USES THEREOF” (AEOVIAN PHARMACEUTICALS, INC., priority 2023, published 2026)

How the values were obtained:
[1] = target: T1, human CD38 (Homo sapiens, UniProt P28907); test: NAD+ cyclase activity assay with human recombinant CD38 protein (ε-NAD fluorescence); format: biochemical; conditions: 1.9 nM human CD38, substrate ε-NAD, 30 min preincubation, fluorescence 300/410 nm
T1 construct: purchased Bio-Techne GmbH AVI2404
T1 sequence (P28907 1-300): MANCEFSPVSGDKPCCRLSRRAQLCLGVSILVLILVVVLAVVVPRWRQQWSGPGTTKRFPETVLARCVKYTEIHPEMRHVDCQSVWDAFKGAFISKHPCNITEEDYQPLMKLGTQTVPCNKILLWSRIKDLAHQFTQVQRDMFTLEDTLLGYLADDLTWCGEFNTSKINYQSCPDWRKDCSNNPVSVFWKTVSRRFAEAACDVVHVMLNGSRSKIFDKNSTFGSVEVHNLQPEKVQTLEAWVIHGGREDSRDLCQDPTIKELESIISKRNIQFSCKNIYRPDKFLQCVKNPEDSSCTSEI
Summary of the method: (§1)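 Recombinant CD38 (0.6 nM mouse or 1.9 nM human) in 40 mM HEPES/NaOH pH 7.5, 250 mM sucrose, 0.01% Tween was preincubated with compound for 30 min at room temperature, then […] ε-NAD was added. Fluorescence (ex 300/em 410 nm) was read continuously. Slopes over the linear phase were normalised to enzyme and no-enzyme controls and fitted from 12-point, threefold dose-response curves.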

[2] = target: T2, mouse CD38 (Mus musculus, UniProt P56528); test: NAD+ cyclase activity assay with mouse recombinant CD38 protein (ε-NAD fluorescence); format: biochemical; conditions: 0.6 nM mouse CD38, substrate ε-NAD, 30 min preincubation, fluorescence 300/410 nm
T2 construct: purchased Bio-Techne GmbH 4947-AC
T2 sequence (P56528 1-304): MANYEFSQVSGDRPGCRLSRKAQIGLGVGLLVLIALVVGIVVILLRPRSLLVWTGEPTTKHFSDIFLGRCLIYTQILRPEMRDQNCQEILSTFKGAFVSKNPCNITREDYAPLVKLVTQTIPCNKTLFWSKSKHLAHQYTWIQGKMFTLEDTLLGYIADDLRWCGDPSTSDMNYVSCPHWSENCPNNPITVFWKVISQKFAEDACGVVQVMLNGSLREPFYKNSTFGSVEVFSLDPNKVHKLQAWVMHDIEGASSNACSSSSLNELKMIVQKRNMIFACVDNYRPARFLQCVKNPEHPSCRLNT
Summary of the method: as §1

Row | SMILES | IC50 [1] [nM] | IC50 [2] [nM]
1 | O=C(N[C@@H]1CCCOC1)c1ccc2c(c1)-n1cncc1CCO2 [Compound 15A, (R)—N-(Tetrahydro-2H-pyran-3-yl)-4,5-dihydrobenzo[b]imidazo[1,5-d][1,4]oxazepine-9-carboxamide] | > 1000 | > 100
2 | O=C(N[C@H]1CC[C@H](C(=O)NCC(F)(F)F)CC1)c1ccc2c(c1)-c1cncn1CCO2 [Compound 61A, N-((1r,4r)-4-((2,2,2-Trifluoroethyl)carbamoyl)cyclohexyl)-5,6-dihydrobenzo[f]imidazo[1,5-d][1,4]oxazepine-10-carboxamide] | < 30 | < 1
3 | COCCO[C@H]1CC[C@H](NC(=O)c2cc(F)c3c(c2)-c2cncn2CCO3)CC1 [Compound 57A, 8-Fluoro-N-((1r,4r)-4-(2-methoxyethoxy)cyclohexyl)-5,6-dihydrobenzo[f]imidazo[1,5-d][1,4]oxazepine-10-carboxamide] | < 30 | < 1
4 | COCCNc1nc2cc(NC(=O)c3ccc4c(c3)-c3cncn3CCO4)ccc2s1 [Compound 48A, N-(2-((2-Methoxyethyl)amino)benzo[d]thiazol-5-yl)-5,6-dihydrobenzo[f]imidazo[1,5-d][1,4]oxazepine-10-carboxamide] | < 30 | 1 to 10
5 | O=C(N[C@H]1CC[C@H](OCCC(F)F)CC1)c1ccc2c(c1)-c1cncn1CCO2 [Compound 78A, N-((1r,4r)-4-(3,3-Difluoropropoxy)cyclohexyl)-5,6-dihydrobenzo[f]imidazo[1,5-d][1,4]oxazepine-10-carboxamide] | 100 to 1000 | > 100
6 | CC(=O)N[C@H]1CC[C@H](NC(=O)c2ccc3c(c2)-c2cncn2CCO3)CC1 [Compound 60A, N-((1r,4r)-4-Acetamidocyclohexyl)-5,6-dihydrobenzo[f]imidazo[1,5-d][1,4]oxazepine-10-carboxamide] | 100 to 1000 | 1 to 10
7 | COCCO[C@H]1CC[C@H](NC(=O)c2cc(C)c3c(c2)-c2cncn2CCO3)CC1 [Compound 53A, N-((1r,4r)-4-(2-Methoxyethoxy)cyclohexyl)-8-methyl-5,6-dihydrobenzo[f]imidazo[1,5-d][1,4]oxazepine-10-carboxamide] | < 30 | < 1
8 | CNC(=O)[C@H]1CC[C@H](NC(=O)c2ccc3c(c2)-c2cncn2CCO3)CC1 [Compound 17A, N-((1r,4r)-4-(Methylcarbamoyl)cyclohexyl)-5,6-dihydrobenzo[f]imidazo[1,5-d][1,4]oxazepine-10-carboxamide] | < 30 | < 1
9 | O=C(Nc1ccc2ncsc2c1)c1ccc2c(c1)-c1cncn1CCO2 [Compound 41A, N-(Benzo[d]thiazol-6-yl)-5,6-dihydrobenzo[f]imidazo[1,5-d][1,4]oxazepine-10-carboxamide] | < 30 | 1 to 10
10 | O=C(N[C@H]1CC[C@H](O[C@H]2C[C@@H](F)C2)CC1)c1ccc2c(c1)-c1cncn1CCO2 [Compound 147A, N-((1r,4r)-4-((1s,3s)-3-Fluorocyclobutoxy)cyclohexyl)-5,6-dihydrobenzo[f]imidazo[1,5-d][1,4]oxazepine-10-carboxamide] | < 30 | 1 to 10
11 | Cn1c(=O)c2cncn2c2cc(C(=O)N[C@@H]3CCCOC3)ccc21 [Compound 16A, (R)-5-Methyl-4-oxo-N-(tetrahydro-2H-pyran-3-yl)-4,5-dihydroimidazo[1,5-a]quinoxaline-8-carboxamide] | > 1000 | > 100
12 | COCCNc1nc2ccc(C(=O)N[C@@H]3CCCOC3)cc2n2cncc12 [Compound 27A, (R)-4-((2-Methoxyethyl)amino)-N-(tetrahydro-2H-pyran-3-yl)imidazo[1,5-a]quinoxaline-8-carboxamide] | 100 to 1000 | 1 to 10
13 | O=C(N[C@H]1CC[C@@H](OCCC(F)F)CC1)c1ccc2c(c1)-c1cncn1CCO2 [Compound 77A, N-((1s,4s)-4-(3,3-Difluoropropoxy)cyclohexyl)-5,6-dihydrobenzo[f]imidazo[1,5-d][1,4]oxazepine-10-carboxamide] | < 30 | 1 to 10

The remaining lines, values ahead:

Row | IC50 [1] [nM] | IC50 [2] [nM] | SMILES
14 | < 30 | 1 to 10 | C[C@@H]1CCC[C@H](C)[C@@H]1NC(=O)c1cc(F)c2c(c1)-c1cncn1CCO2 [Compound 178A, N-(cis-2-cis-6-Dimethylcyclohexyl)-8-fluoro-5,6-dihydrobenzo[f]imidazo[1,5-d][1,4]oxazepine-10-carboxamide]
15 | > 1000 | > 100 | CC(C)(CO[C@H]1CC[C@@H](NC(=O)c2cc(Cl)c3c(c2)-c2cncn2CCO3)CC1)C(F)(F)F [Compound 171A, 8-Chloro-N-((1s,4s)-4-(3,3,3-trifluoro-2,2-dimethylpropoxy)cyclohexyl)-5,6-dihydrobenzo[f]imidazo[1,5-d][1,4]oxazepine-10-carboxamide]
16 | > 1000 | > 100 | O=C(N[C@H]1CC[C@@H](OCC2(C(F)(F)F)CC2)CC1)c1ccc2c(c1)-c1cncn1CCO2 [Compound 118A, N-((1s,4s)-4-((1-(Trifluoromethyl)cyclopropyl)methoxy)cyclohexyl)-5,6-dihydrobenzo[f]imidazo[1,5-d][1,4]oxazepine-10-carboxamide]
17 | < 30 | 1 to 10 | O=C(NC1CCC(CC(F)(F)F)CC1)c1cc(Cl)c2c(c1)-c1cncn1CCO2 (stereo not drawn) [Compound 165A, 8-Chloro-N-(4-(2,2,2-trifluoroethyl)cyclohexyl)-5,6-dihydrobenzo[f]imidazo[1,5-d][1,4]oxazepine-10-carboxamide]
18 | < 30 | 1 to 10 | CC1(F)CC(NC(=O)c2cc(F)c3c(c2)-c2cncn2CCO3)C1 (stereo not drawn) [Compound 138A, 8-Fluoro-N-(3-fluoro-3-methylcyclobutyl)-5,6-dihydrobenzo[f]imidazo[1,5-d][1,4]oxazepine-10-carboxamide]
19 | 100 to 1000 | 10 to 100 | O=C(N[C@H]1CC[C@@H](OCCCF)CC1)c1ccc2c(c1)-c1cncn1CCO2 [Compound 79A, N-((1s,4s)-4-(3-Fluoropropoxy)cyclohexyl)-5,6-dihydrobenzo[f]imidazo[1,5-d][1,4]oxazepine-10-carboxamide]
20 | < 30 | 1 to 10 | O=C(Nc1cnc(OCCC(F)(F)F)nc1)c1ccc2c(c1)-c1cncn1CCO2 [Compound 104A, N-(2-(3,3,3-Trifluoropropoxy)pyrimidin-5-yl)-5,6-dihydrobenzo[f]imidazo[1,5-d][1,4]oxazepine-10-carboxamide]
21 | < 30 | 1 to 10 | O=C(NC1CCC(CC(F)(F)F)CC1)c1ccc2c(c1)-c1cncn1CCO2 (stereo not drawn) [Compound 119A, N-(4-(2,2,2-Trifluoroethyl)cyclohexyl)-5,6-dihydrobenzo[f]imidazo[1,5-d][1,4]oxazepine-10-carboxamide]
22 | < 30 | 1 to 10 | C[C@@H]1CCCC[C@@H]1NC(=O)c1cc(F)c2c(c1)-c1cncn1CCO2 (relative stereo) [Compound 175A, 8-Fluoro-N-(cis-2-methylcyclohexyl)-5,6-dihydrobenzo[f]imidazo[1,5-d][1,4]oxazepine-10-carboxamide]
23 | 30 to 100 | 1 to 10 | O=C(N[C@H]1CC[C@H](CN2CC(F)(F)C2)CC1)c1ccc2c(c1)-c1cncn1CCO2 [Compound 105A, N-((1r,4r)-4-((3,3-Difluoroazetidin-1-yl)methyl)cyclohexyl)-5,6-dihydrobenzo[f]imidazo[1,5-d][1,4]oxazepine-10-carboxamide]
24 | < 30 | 1 to 10 | O=C(NC1CCC(CC(F)(F)F)CC1)c1cc(F)c2c(c1)-c1cncn1CCO2 (stereo not drawn) [Compound 164A, 8-Fluoro-N-(4-(2,2,2-trifluoroethyl)cyclohexyl)-5,6-dihydrobenzo[f]imidazo[1,5-d][1,4]oxazepine-10-carboxamide]
25 | 30 to 100 | 1 to 10 | O=C(N[C@H]1CC[C@H](NCCC(F)(F)F)CC1)c1ccc2c(c1)-c1cncn1CCO2 [Compound 110A, N-((1r,4r)-4-((3,3,3-Trifluoropropyl)amino)cyclohexyl)-5,6-dihydrobenzo[f]imidazo[1,5-d][1,4]oxazepine-10-carboxamide]
26 | 30 to 100 | 10 to 100 | CC1(NC(=O)c2cc(F)c3c(c2)-c2cncn2CCO3)CCS(=O)(=O)C1 (stereo not drawn) [Compound 169A, 8-Fluoro-N-(3-methyl-1,1-dioxidotetrahydrothiophen-3-yl)-5,6-dihydrobenzo[f]imidazo[1,5-d][1,4]oxazepine-10-carboxamide]
27 | < 30 | 1 to 10 | O=C(N[C@H]1CC[C@H](OCC(F)(F)F)CC1)c1ccc2c(c1)-c1cncn1CCO2 [Compound 122A, N-((1r,4r)-4-(2,2,2-Trifluoroethoxy)cyclohexyl)-5,6-dihydrobenzo[f]imidazo[1,5-d][1,4]oxazepine-10-carboxamide]
